The record followed here is article PMC5131364, “Pharmacologic modulation of RORγt translates to efficacy in preclinical and translational models of psoriasis and inflammatory arthritis” (Scientific Reports, 2016).

The IC50 is the concentration at which inhibition is half-maximal.

For one assay, the system named is mouse splenic γδ T cells. As to the kind of experiment: Mouse γδ+ T cell in vitro activation. The format is cell-based. To be noted: for IC50: Mus musculus, T-cell, IL-1β/IL-23 plus anti-IFNγ, 65 hours, ELISA. An excerpt:
The following antibodies (anti-mouse or anti-human) were purchased from BD Biosciences (San Diego, CA) or eBioscience (San Diego, CA): anti-CD3-FITC (mouse 17A2 and human SK7), anti-CD4-allophycocyanin (APC), anti-CD4-PerCp, anti-CD4-FITC, anti-CD4-PE (mouse GK1.5 and human SK3), anti-CD44-PerCp (mouse IM7), anti-γδ TCR-FITC, anti-γδ TCR-PE (mouse GL3 and human B1), anti-CD62L-FITC (mouse MEL-14 and human SK11), anti-CD45RO-APC (human UCHL1), anti-CCR6-PE (human 11A9), anti-CD45-PerCp (mouse 30-F11). Human or mouse anti-IFNγ (mouse XMG1.2 and human 4S.B3), anti-TNFα (mouse MP6-XT22 and human MAB11), anti-IL-17A (mouse eBio17B7 and human eBio64DEC17), anti-IL-22 (mouse 1H8PWSR and human 22URTI), and anti-Foxp3 (mouse FJK-16s and human 36A/E7), all PE or APC conjugated, were purchased from eBioscience (San Diego, CA). Human and mouse APC conjugated CD1d tetramers pre-loaded with alpha-GalCer and negative controls were obtained from ProImmune. For intracellular staining cells were stimulated for 4 hours at 37 °C with PMA and ionomycin (0.5 μg/ml each) in the presence of brefeldin A and monensin or with leukocyte activation cocktail (BD Bioscience, San Diego, CA). Cells were stained with fluorescence-labeled antibodies for surface marker, then fixed/permeabilized (eBioscience) and stained with antibodies for intracellular cytokines. For Foxp3 staining cells were fixed/permeabilized using transcription factor buffer set (eBioscience). The data were acquired on a FACS Calibur (BD Bioscience) and analyzed using FlowJo software (Tree Star, San Carlos, CA).
Mouse γδ^+ T cells were isolated from splenocytes of C57BL/6N mice using TCR γδ^+ T Cell Isolation Kit (Miltenyl Biotec, Auburn, CA), following the manufacturer’s instructions. Cells were resuspended in culture medium and seeded in 96-well plates at 5 × 10^4 per well. […] Cells were incubated at 37 °C and 5% CO2 for 65 hours before sample collection. Supernatant samples were collected for measurement of IL-17A, IL-17F and IL-22 using R&D ELISA kits, according to manufacturer’s instructions. Cytokine-producing cells were analyzed through intracellular staining and flow cytometry analysis.
(An ELISA detects its analyte on a solid surface through an enzyme-linked reagent.)

For the next assay, the system named is PBMC from RA patients. As to the kind of experiment: IL-17A/IL-22 production from PBMC of rheumatoid arthritis patients. The format is cell-based, human. To be noted: anti-CD3/anti-CD28 plus IL-1β and IL-23, 3 days. The text has this:
(§1) Frozen PBMCs of healthy and rheumatoid arthritis patients were obtained from SeraCare Life Sciences (Gaithersburg, MD). […] 3 days later, supernatants were collected and analyzed by MSD multi-spot assay or ELISA for IL-17A, IL-22 and IL-13 production.

For another assay, the system named is PBMC from healthy donors. As to the kind of experiment: IL-17A production from PBMC of healthy donors. The format is cell-based. To be noted: Homo sapiens, typically observed.
Excerpt: as §1

Assay [1] concerns human iTreg cells co-cultured with responder CD4+ T cells. The assay can be described thus: Human inducible regulatory T cells suppressive function. To be noted: iTreg generated in presence of 1 μM, CFSE. The format is cell-based. The procedure:
37 °C and 5% CO2 for 6 days. Cells were used for flow cytometry analysis of FOXP3+CD4+ T cells and RNA isolation to determine FOXP3 expression. The probe sets were purchased form Life technologies, FOXP3 […]
Human inducible regulatory T cells generation and suppressive function
To generate inducible regulatory T cells, naïve CD4 T cells was purified from PBMCs using naive CD4+ T cell isolation kit II, human (Miltenyi) and stimulated with anti‐CD3/anti‐CD28 antibodies plus IL‐2 and TGF‐β (10 ng/ml each, R&D system) in the presence or absence of 1µM JNJ‐54271074 . After 6‐7 days T cells were washed and Foxp3 expression was evaluated by FACS. […] After 4 days CFSE dilution was evaluated by FACS as an indication of responder T cell’s proliferation.
Supplementary Figure 1. […] Accumulated IL‐ 17A or IFNγ  was measured by ELISA.
Supplementary Figure 2. […] Total splenocytes were cultured with IL‐23 and IL‐2 in the presence of titrated JNJ‐54271074 for 4 days, and supernatants were measured for IL‐17A and IL‐22 by ELISA. IC50 was determined using Prism Graphpad.
Supplementary Figure 3. […] Cells were analyzed by flow cytometry for 17A+ and IL‐ 17A+/22+ population (A). […] Cells from DMSO or 1 µM JNJ‐54271074 treated wells were analyzed by flow cytometry for IFNγ+ and IL‐17A+ population (B) and IFNγ level in supernatants was […]

Read-outs that look alike come from different tables or passages of the source.

Turning to `COc1nc2ccc([C@@](O)(c3ccc(C)nc3C)c3cnnn3C)cc2c(Cl)c1Cc1ccc(C(F)(F)F)cc1` [JNJ-54271074], the “decrease of the percentage of IL-17A- and IL-17A/IL-22-producing cells” value in the assay with mouse splenic γδ T cells (0.1 μM) was “about 50%”. Further, the half-inhibitory concentration (IC50) was 0.077 µM in the assay with mouse splenic γδ T cells (read-out: IC50, IL-17A production); 0.054 µM with mouse splenic γδ T cells (read-out: IC50, IL-17F production); 0.083 µM in the assay with mouse splenic γδ T cells (read-out: IC50, IL-22 production); 0.005 ± 0.0012 µM in the assay with PBMC from RA patients (Homo sapiens, PBMC, 72 h, read-out: IC50, IL-17A production from PBMC from RA subjects); 0.003 ± 0.0009 µM in the assay with PBMC from healthy donors. Besides, the “efficacy, inhibition of IL-17A production” value in the assay on PBMC from RA patients (RA PBMC) stood at 88%. Besides, the “efficacy, inhibition of IL-22 production” value with PBMC from RA patients (RA PBMC) is on record as 44%. Also, the “Treg suppressive activity on T cell proliferation” value in assay [1] is given as “not affected”.
